Assay results from BindingDB's records for doi:10.7270/Q2VQ313H (Nmmlsc, 2008).
Counter-ions that a name gives are not always drawn.

Biological target: Estrogen receptor beta (Homo sapiens, UniProt Q92731)
Experiment: ERbeta binders displacing fluorescent estradiol, dose response, cell-based, Cos7 ERbeta-GFP, E2-Alexa633, flow cytometry (AID 1221)
[1] = inactive by the depositor's call

Sequence of Estrogen receptor beta (Q92731 whole entry): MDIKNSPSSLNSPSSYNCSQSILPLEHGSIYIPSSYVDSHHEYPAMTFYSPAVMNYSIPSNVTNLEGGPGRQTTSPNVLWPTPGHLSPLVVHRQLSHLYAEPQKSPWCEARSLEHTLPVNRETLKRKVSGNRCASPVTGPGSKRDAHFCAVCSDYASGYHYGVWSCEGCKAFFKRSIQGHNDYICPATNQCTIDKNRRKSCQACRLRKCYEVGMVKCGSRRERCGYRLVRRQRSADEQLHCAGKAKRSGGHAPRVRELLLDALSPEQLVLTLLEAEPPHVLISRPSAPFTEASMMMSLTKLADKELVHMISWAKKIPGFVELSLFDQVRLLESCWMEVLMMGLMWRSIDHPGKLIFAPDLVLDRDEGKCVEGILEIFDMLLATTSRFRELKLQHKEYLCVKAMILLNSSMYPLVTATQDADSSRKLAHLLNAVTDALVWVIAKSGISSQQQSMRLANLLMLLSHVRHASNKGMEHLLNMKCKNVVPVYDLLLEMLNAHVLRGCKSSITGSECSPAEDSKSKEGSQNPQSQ

SMILES: Cc1ccc(C(=O)N/N=C/c2ccc([N+](=O)[O-])s2)cc1 [4-methyl-N-[(5-nitro-2-thiophenyl)methylideneamino]benzamide]
- EC50 [1]: 70.7 nM

SMILES: CC(=O)c1ccc2c(c1)[C@@H]1C=CC[C@@H]1[C@H](c1cc3c(cc1Br)OCO3)N2
- EC50: 184 nM

SMILES: O=C(O)c1cc(Cl)c2c(c1)[C@@H]1C=CC[C@@H]1[C@H](c1ccc(S(=O)(=O)N3CCOCC3)cc1)N2 [(3aS,4R,9bR)-6-chloranyl-4-(4-morpholin-4-ylsulfonylphenyl)-3a,4,5,9b-tetrahydro-3H-cyclopenta[c]quinoline-8-carboxylic acid]
- EC50 [1]: 729 nM

SMILES: O=C(O)c1ccc([N+](=O)[O-])c2c1NC(c1ccccc1)C1CC=CC21 (centres undefined) [9-nitro-4-phenyl-3a,4,5,9b-tetrahydro-3H-cyclopenta[c]quinoline-6-carboxylic acid]
- EC50: 0.65 nM

SMILES: CC(=O)c1ccc2c(c1)C1C=CCC1C(c1cccc([N+](=O)[O-])c1)N2 (centres undefined) [1-[4-(3-nitrophenyl)-3a,4,5,9b-tetrahydro-3H-cyclopenta[c]quinolin-8-yl]ethanone]
- EC50: > 10000 nM

SMILES: O=C(c1cc2ncc(Br)cn2n1)N1CCN(C(=O)c2ccco2)CC1 [6-bromo-2-{[4-(2-furoyl)-1-piperazinyl]carbonyl}pyrazolo[1,5-a]pyrimidine]
- EC50: 2.73 nM

SMILES: CCn1nnc(NC(=O)CSc2ccc(Cl)cc2)n1 [2-(4-chlorophenyl)sulfanyl-N-(2-ethyl-1,2,3,4-tetrazol-5-yl)ethanamide]
- EC50: > 10000 nM

SMILES: Cc1cc(-c2nn3c(-c4ccccc4)nnc3s2)c2ccccc2n1 [2-methyl-4-(3-phenyl[1,2,4]triazolo[3,4-b][1,3,4]thiadiazol-6-yl)quinoline]
- EC50 [1]: 4180 nM

SMILES: COc1ccc(CNC(=O)c2cc(-c3cccs3)on2)cc1 [MLS000087249]
- EC50 [1]: 99.4 nM

SMILES: COc1ccccc1N1CCN(C(=O)c2ccc3nc(-c4ccco4)c(-c4ccco4)nc3c2)CC1 [2,3-di-2-furyl-6-{[4-(2-methoxyphenyl)piperazin-1-yl]carbonyl}quinoxaline]
- EC50: 0.87 nM

SMILES: COc1ccc(NS(=O)(=O)c2ccc3c(c2)[C@H]2C=CC[C@H]2[C@@H](c2ccc(C(=O)O)cc2)N3)cc1
- EC50 [1]: 2280 nM

SMILES: CCCCOC(=O)c1c(C)oc2ccc(NS(=O)(=O)c3ccc4c5c(cccc35)C(=O)N4)cc12 [2-methyl-5-[(2-oxo-1H-benzo[cd]indol-6-yl)sulfonylamino]-3-benzofurancarboxylic acid butyl ester]
- EC50 [1]: 83.7 nM

SMILES: O=C(OCC(=O)N1CCN(C(=O)c2ccco2)CC1)c1cc(-c2ccco2)nc2ccccc12 [2-(2-furanyl)-4-quinolinecarboxylic acid [2-[4-[2-furanyl(oxo)methyl]-1-piperazinyl]-2-oxoethyl] ester]
- EC50 [1]: 16.3 nM

SMILES: C[C@]12CC[C@@H]3c4ccc(O)cc4C(=O)C[C@H]3[C@@H]1CC[C@@H]2O [(8R,9S,13S,14S,17S)-13-methyl-3,17-bis(oxidanyl)-8,9,11,12,14,15,16,17-octahydro-7H-cyclopenta[a]phenanthren-6-one]
- EC50 [1]: 38.1 nM

SMILES: CC(=O)Oc1ccc(C2Nc3c(C(=O)O)ccc([N+](=O)[O-])c3C3C=CCC32)cc1 (centres undefined) [4-(4-acetoxyphenyl)-9-nitro-3a,4,5,9b-tetrahydro-3H-cyclopenta[c]quinoline-6-carboxylic acid]
- EC50: > 10000 nM

SMILES: Cc1cc(C)c2c(c1)[C@@H]1C=CC[C@@H]1[C@H](c1ccc(S(=O)(=O)N3CCOCC3)cc1)N2 [(3aS,4R,9bR)-6,8-dimethyl-4-[4-(morpholin-4-ylsulfonyl)phenyl]-3a,4,5,9b-tetrahydro-3H-cyclopenta[c]quinoline]
- EC50 [1]: 165 nM

SMILES: Nc1ncnc2c1ncn2C1CCC(CO)C(O)C1 (centres undefined) [5-(6-aminopurin-9-yl)-2-(hydroxymethyl)-1-cyclohexanol]
- EC50: 2.14 nM

SMILES: O=C1C=C/C(=C2/Nc3ccc4ccccc4c3C3=C2CCC3)C=C1O [SMR000184811]
- EC50: > 10000 nM

SMILES: Nc1ccc(-c2nc3cc([N+](=O)[O-])ccc3[nH]2)cc1
- EC50 [1]: 2350 nM

SMILES: O=C(COC(=O)CCC(=O)c1cccs1)NCc1ccco1 [4-keto-4-(2-thienyl)butyric acid [2-(2-furfurylamino)-2-keto-ethyl] ester]
- EC50: 1.74 nM

SMILES: O=C(Nc1cc(C(F)(F)F)ccc1N1CCOCC1)C1Cc2ccccc2CN1C(=O)c1ccco1 (centres undefined) [2-(2-furoyl)-N-[2-morpholino-5-(trifluoromethyl)phenyl]-3,4-dihydro-1H-isoquinoline-3-carboxamide]
- EC50: 1260 nM

SMILES: CCC(=O)Oc1ccc(C(CC)C(CC)c2ccc(OC(=O)CC)cc2)cc1 (centres undefined) [HEXESTROL DIPROPIONATE]
- EC50: 7.69 nM

SMILES: CCc1ccc(-c2nn(-c3ccccc3)cc2CSC(=N)N)cc1 [2-[[3-(4-ethylphenyl)-1-phenyl-pyrazol-4-yl]methyl]isothiourea;hydrochloride]
- EC50: 39.9 nM

SMILES: Cc1oc2cc(O)ccc2c(=O)c1Oc1ccccc1 [2-methyl-7-oxidanyl-3-phenoxy-chromen-4-one]
- EC50 [1]: 438 nM
